{"source": "patent US11903914B2", "about": "“Applications for sulindac in preparing anti-lung cancer products” (SHANGHAI JIAO TONG UNIVERSITY, priority 2015, dated 2024)", "type_in_all_cases": "cell-based", "key": {"[1]": {"tested_on": "NCI-H720 lung cancer cells", "assay": "CELLTITER-GLO luminescent cell viability assay, NCI-H720 96-well drug screening plate", "conditions": "72 hours", "method": "(§1) In example 1, CELLTITER-GLO was used to test sulindac against lung cancer\n(§2) 1. Cell Plating • a) The complete medium required for each cell was prepared. • b) Before beginning the experiment, the name of the drug screened for the cells marked on the 100 mm petri dish was confirmed as well as information such as the passage time and number of passages to ensure the experiment was error-free. • c) Refer to steps d) through i) for procedures for adherent cells; refer to steps j) through l) for procedures for suspension cells. • d) When using aseptic technique, a vacuum pump was used to draw the cell culture medium. • e) 2 ml of a sterile PBS solution was used to rinse cell surfaces, and a vacuum pump was used to aspirate the PBS waste. • f) A 1 ml 0.25% (w/v) Trypsin-0.038% (w/v) EDTA solution was gently added to the petri dish for cell digestion, and after gently mixing several times, the solution covered the cell surfaces. […]"}, "[2]": {"tested_on": "LOVO (ATCC CCL-229) lung cancer cells", "assay": "CELLTITER-GLO luminescent cell viability assay, LOVO cells (same method)", "conditions": "Homo sapiens", "method": "as §2"}, "[3]": {"tested_on": "SW900 lung cancer cells", "assay": "CELLTITER-GLO luminescent cell viability assay, SW900 96-well drug screening plate", "conditions": "Homo sapiens, 72 hours", "method": "as §1, §2"}}, "note": "pEC50, pIC50: −log10 of the molar value."}
{"smiles": "CC1=C(CC(=O)O)c2cc(F)ccc2/C1=C\\c1ccc([S+](C)[O-])cc1", "note": "(stereo not shown) [sulindac]", "values": [{"measurement": "pIC50", "setting": "[1]; CellTiter-Glo", "result": 4.37}, {"measurement": "pEC50", "setting": "[1]; FIG. 2 curve fit", "result": 4.41}, {"measurement": "pIC50", "setting": "[2]", "result": 4.00}, {"measurement": "pIC50", "setting": "[3]", "result": 4.30}]}
